Measurements published in US20220133846A1, “NOVEL ANTIMICROBIAL COMPOUND AND USES THEREOF” (priority 2019, published 2022).
≈ marks a conversion by molar mass, not a printed value. Where “and” joins values, the source holds several entries; their conditions need not be identical. Equal entries are not always repeated. Where two headings read alike, the source gives them in different places.

How the values were obtained:
[1] = test system: broad spectrum of Gram-positive bacteria; settings: cited from earlier work
[2] = test system: Acinetobacter calcoaceticus; test: MIC against clinical isolates (Christiana Hospital); assay type: cell-based; settings: clinical strain CH37, drug resistance N
Acinetobacter ursingii = test: as above; assay type: cell-based; settings: clinical strain CH41, drug resistance N
Acinetobacter guillouiae = test: as above; assay type: cell-based; settings: clinical strain CH42, drug resistance N
Acinetobacter modestus = test: as above; assay type: cell-based; settings: clinical strain CH43, drug resistance N
Acinetobacter septicus = test: as above; assay type: cell-based; settings: clinical strain CH44, drug resistance N
A. baumannii (CH-46) = test: Frequency of resistance (FoR) in vitro; assay type: cell-based
Acinetobacter baumannii [3] = test system: Acinetobacter baumannii
[4] = test system: S. aureus (SA) and MRSA biofilms; assay type: cell-based
[5] = test system: S. aureus NRS 384 (USA300-0114); test: Murine neutropenic thigh infection model; assay type: in vivo, mice; settings: 25 mg/kg, both studies
Acinetobacter baumannii [6] = test: microbe, parasite or virus in culture
S. aureus = test: Prevention of biofilm formation by pre-coating wells; assay type: cell-based; settings: data not shown

## C=C1NC(=O)CC[C@@H](C(=O)O)NC(=O)[C@H](NC(=O)[C@H](CCCCN)NC(=O)[C@@H](N)Cc2c[nH]c3ccccc23)CSC[C@@H](C(=O)N[C@@H]2C(=O)N3CCC[C@H]3C(=O)NCC(=O)N[C@H](C(=O)N[C@H](C(=O)N[C@@H]3C(=O)NCC(=O)N[C@@H](C)C(=O)N[C@@H](CC(C)C)C(=O)N[C@@H](CCC(N)=O)C(=O)N/C(=C/C)C(=O)N[C@H](C(=O)N[C@@H](Cc4ccccc4)C(=O)N[C@@H](CC(C)C)C(=O)N[C@@H](CCC(N)=O)C(=O)N[C@@H]4C(=O)N[C@@H](CC(C)C)C(=O)N[C@H]5C(=O)N[C@@H](CSC4C)C(=O)NC(=O)[C@H](CC(N)=O)N[C@H](C(=O)N[C@@H](CCCCN)C(=O)N[C@H](C(=O)NC(=C)C(=O)N[C@@H](CCCCN)C(=O)O)[C@@H](C)CC)CSC5C)CSC3C)C(C)C)CSC2C)N[C@@H](CC(C)C)C(=O)NC1=O (some centres unmarked) [subtilin]
[1]
  Antimicrobial activity: nanomolar range

## Colistin
[2]
  MIC: 3.91 µg/mL
Acinetobacter ursingii
  MIC: 1.95 µg/mL
Acinetobacter guillouiae
  MIC: 3.91 µg/mL
Acinetobacter modestus
  MIC: 7.81 µg/mL
Acinetobacter septicus
  MIC: 1.95 µg/mL
A. baumannii (CH-46); 2X MIC
  Frequency of resistance (FoR): 2.7 × 10^−7
A. baumannii (CH-46); 3X MIC
  Frequency of resistance (FoR): 3.7 × 10^−8
A. baumannii (CH-46); 4X MIC
  Frequency of resistance (FoR): 5.2 × 10^−8
A. baumannii (CH-46); 5X MIC
  Frequency of resistance (FoR): 5.4 × 10^−8
A. baumannii (CH-46); 10X MIC
  Frequency of resistance (FoR): 2.0 × 10^−9
Acinetobacter baumannii [3]
  MIC: 3.91 µg/mL and 5.86 µg/mL and 7.81 µg/mL

## CN[C@H](CC(C)C)C(=O)N[C@H]1C(=O)N[C@@H](CC(N)=O)C(=O)N[C@H]2C(=O)N[C@H]3C(=O)N[C@H](C(=O)N[C@H](C(=O)O)c4cc(O)cc(O)c4-c4cc3ccc4O)[C@H](O)c3ccc(c(Cl)c3)Oc3cc2cc(c3O[C@@H]2O[C@H](CO)[C@@H](O)[C@H](O)[C@H]2O[C@H]2C[C@](C)(N)[C@H](O)[C@H](C)O2)Oc2ccc(cc2Cl)[C@H]1O [vancomycin, reference compound]
[4]
  Effect on viability of pre-formed biofilm: not effective
[5]
  Bacterial load relative to pre-treatment levels: reduced bacterial load to or below pre-treatment levels

## C[C@@H](O)[C@H]1C(=O)N2C(C(=O)O)=C(SCCN=CN)C[C@H]12 [Imipenem]
[2]; Acinetobacter calcoaceticus, read-out: MIC
  MIC: 0.5 µg/mL (≈ 1.67 µM)
Acinetobacter ursingii; Acinetobacter ursingii, read-out: MIC
  MIC: 1 µg/mL (≈ 3.34 µM)
Acinetobacter guillouiae; Acinetobacter guillouiae, read-out: MIC
  MIC: 7.81 µg/mL (≈ 26.1 µM)
Acinetobacter modestus; Acinetobacter modestus, read-out: MIC
  MIC: 0.5 µg/mL (≈ 1.67 µM)
Acinetobacter septicus; Acinetobacter septicus, read-out: MIC
  MIC: 1.46 µg/mL (≈ 4.88 µM)
Acinetobacter baumannii [6]; clinical strain CH36, drug resistance N
  MIC: 250 µg/mL (≈ 835 µM)
Acinetobacter baumannii [6]; clinical strain CH38, drug resistance N
  MIC: 125 µg/mL (≈ 418 µM)
Acinetobacter baumannii [6]; clinical strain CH39, drug resistance N
  MIC: 15.6 µg/mL (≈ 52.2 µM)
Acinetobacter baumannii [6]; clinical strain CH40, drug resistance N
  MIC: 31.2 µg/mL (≈ 104 µM)
Acinetobacter baumannii [6]; clinical strain CH45, drug resistance Y
  MIC: 125 µg/mL (≈ 418 µM)
Acinetobacter baumannii [6]; clinical strain CH46, drug resistance Y
  MIC: 250 µg/mL (≈ 835 µM)
Acinetobacter baumannii [6]; clinical strain CH47, drug resistance Y
  MIC: 3.91 µg/mL (≈ 13.1 µM)
Acinetobacter baumannii [6]; clinical strain CH48, drug resistance Y
  MIC: 7.81 µg/mL (≈ 26.1 µM)
Acinetobacter baumannii [6]; clinical strain CH49, drug resistance Y
  MIC: 62.5 µg/mL (≈ 209 µM)
Acinetobacter baumannii [6]; clinical strain CH50, drug resistance Y
  MIC: 62.5 µg/mL (≈ 209 µM)
Acinetobacter baumannii [6]; clinical strain CH51, drug resistance Y
  MIC: 31.2 µg/mL (≈ 104 µM)
Acinetobacter baumannii [6]; clinical strain CH52, drug resistance Y
  MIC: 31.2 µg/mL (≈ 104 µM)
Acinetobacter baumannii [6]; clinical strain CH53, drug resistance Y
  MIC: 31.2 µg/mL (≈ 104 µM)
Acinetobacter baumannii [6]; clinical strain CH54, drug resistance Y
  MIC: 7.81 µg/mL (≈ 26.1 µM)
Acinetobacter baumannii [6]; clinical strain CH55, drug resistance Y
  MIC: 46.9 µg/mL (≈ 157 µM)

B1: platelet factor 4: a control cationic peptide (protein, UniProt P02776 32-101, looked up)
Platelet factor 4: EAEEDGDLQCLCVKTTSQVRPRHITSLEVIKAGPHCPTAQLIATLKNGRKICLDLQAPLYKKIIKKLLES
S. aureus
  Effect of coating wells on S. aureus attachment: no effect
